Measured values taken from PubChem BioAssay (NCI).
“And” between values parts separate entries of the source, which are not always exact repeats. Equal values may be shown once.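 Briefly, cells in 96-well plates were exposed to five compound concentrations for 48 h, and endpoints were estimated by linear interpolation. GI50: concentration for 50% inhibition of growth. TGI: total growth inhibition.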

How the values were obtained:
Experiment in all cases: growth of human tumour cells (NCI), 48 h
MCF7 breast = test system: MCF7 breast
SK-OV-3 ovarian = test system: SK-OV-3 ovarian
NCI-H522 lung = test system: NCI-H522 lung
HCT-116 colon = test system: HCT-116 colon
PC-3 prostate = test system: PC-3 prostate
DU-145 prostate = test system: DU-145 prostate
NCI-H460 lung = test system: NCI-H460 lung
K-562 leukemia = test system: K-562 leukemia
NCI-H23 lung = test system: NCI-H23 lung
SK-MEL-2 melanoma = test system: SK-MEL-2 melanoma

Structure (SMILES)	GI50 (MCF7 breast)	TGI (MCF7 breast)	GI50 (SK-OV-3 ovarian) [µM]	TGI (SK-OV-3 ovarian) [µM]	GI50 (NCI-H522 lung)	TGI (NCI-H522 lung)	GI50 (HCT-116 colon)	TGI (HCT-116 colon)	GI50 (PC-3 prostate)	TGI (PC-3 prostate) [µM]	GI50 (DU-145 prostate)	TGI (DU-145 prostate) [µM]	GI50 (NCI-H460 lung)	TGI (NCI-H460 lung)	GI50 (K-562 leukemia)	TGI (K-562 leukemia) [µM]	GI50 (NCI-H23 lung)	TGI (NCI-H23 lung)	GI50 (SK-MEL-2 melanoma)	TGI (SK-MEL-2 melanoma)
COC(=O)c1ccc2[nH]c(O)c(C(=Nc3ccc(N(C)C(=O)CN4CCN(C)CC4)cc3)c3ccc4c(c3)OCO4)c2c1	0.327 µM	1.8 µM	0.197	1.19	0.859 µM	3.66 µM	0.197 µM	1.52 µM	0.489 µM	3.39	1.03 µM	6.06	0.902 µM	2.65 µM	0.056 µM	6.16	0.612 µM	2.85 µM	1.24 µM	3.69 µM
COc1ccc2c(c1)OC1=C(C(=O)OC1)C2c1cc(OC)c2c(c1)OCCO2 (centres undefined)	0.0352 µM	> 100 µM	0.0716	7.33	–	–	0.0478 µM	> 31.9 µM	0.0487 µM	> 100	0.0915 µM	–	0.0408 µM	> 100 µM	0.0432 µM	> 100	0.0454 µM	> 100 µM	0.0483 µM	> 100 µM
CCN(CC)CCNC(Cc1ccccc1)c1ccc(OCc2ccccc2)cc1 (centres undefined)	3.03 µM	12 µM	10.9	23.6	10.2 µM	22.7 µM	4.25 µM	25.5 µM	3.68 µM	15.7	8.54 µM	21.1	3.56 µM	12.9 µM	2.37 µM	7.16	–	–	3.42 µM	9.74 µM
O=C(O)CCCc1ccc2ccc3ccccc3c2c1	–	> 100 µM	–	–	–	> 100 µM	–	> 100 µM	–	> 100	–	> 100	–	> 100 µM	–	> 100	–	> 100 µM	–	> 100 µM
C=C(C)[C@@H]1CC[C@]2(COCCCN)CC[C@]3(C)[C@H](CC[C@@H]4[C@@](C)(CCCNCCCN)[C@H](C(=C)C)CC[C@]43C)[C@@H]12	1.59 µM	3.22 µM	2.23	4.9	1.88 µM	3.78 µM	1.45 µM	2.84 µM	1.7 µM	3.25	1.92 µM	3.43	1.8 µM	3.44 µM	1.67 µM	3.57	1.79 µM	3.63 µM	1.89 µM	3.71 µM
O=C(Oc1ccc[nH]c1=O)c1cc([N+](=O)[O-])cc([N+](=O)[O-])c1	> 100 µM	> 100 µM	> 100	> 100	> 100 µM	> 100 µM	> 100 µM	> 100 µM	> 100 µM	> 100	> 100 µM	> 100	34 µM	> 100 µM	34.9 µM	> 100	> 100 µM	> 100 µM	> 100 µM	> 100 µM
CNC(=O)OCc1nc(SSC(C)(C)C)n(C)c1COC(=O)NC	–	15.5 µM	–	31.1	–	2.69 µM	–	3.26 µM	–	21	–	33.3	–	26.6 µM	–	7.06	–	8.11 µM	–	19.5 µM
O=C1C(=O)c2ccccc2C(O)=C1C(C1=C(O)c2ccccc2C(=O)C1=O)c1ccc(Cl)cc1	–	11.4 µM	–	33.5	–	27.3 µM	–	18.2 µM	–	57.7	–	10.3	–	28.9 µM	–	39.2	–	27.8 µM	–	24.1 µM
COc1cc(C2c3cc4c(cc3OC(C)(N3CCCC3)C2C)OCO4)cc(OC)c1OC (centres undefined)	–	16.3 µM	–	> 62.6	–	0.612 µM	–	16.5 µM	–	> 100	–	2.57	–	19.2 µM	–	0.908	–	6.32 µM	–	52.1 µM
O=C(O)c1ccc(CN2CCC(CN[C@@H]3C[C@H]3c3ccccc3)CC2)cc1	> 100 µM	> 100 µM	> 100	> 100	> 100 µM	> 100 µM	> 100 µM	> 100 µM	> 100 µM	> 100	> 100 µM	> 100	> 100 µM	> 100 µM	> 100 µM	> 100	> 100 µM	> 100 µM	> 100 µM	> 100 µM
CCN(CC)CCCC(CCl)Nc1ccnc2cc(Cl)ccc12 (centres undefined)	23.9 µM and 27.9 µM	75.2 µM and > 87.2 µM	> 100	> 100	25.7 µM and 25.1 µM	67.8 µM and > 73.6 µM	9.81 µM and 6.94 µM	25.2 µM and 30.4 µM	27.2 µM and 34.9 µM	> 100	49.6 µM and 47.1 µM	> 100	19.6 µM and 24.3 µM	56.4 µM and > 100 µM	3.42 µM and 3.99 µM	15.7	17.9 µM and 22.1 µM	38.3 µM and > 60.2 µM	25.4 µM and 35 µM	57.5 µM and > 100 µM
CCN1C(=O)c2ccc3c4c(ccc(c24)C1=O)C(=O)N(CCCNCc1ccccc1OC)C3=O	0.205 µM	0.584 µM	2.28	7.04	1.19 µM	2.68 µM	0.329 µM	1.14 µM	0.613 µM	5.18	1.22 µM	2.5	0.437 µM	2.09 µM	0.936 µM	4.27	0.782 µM	3.68 µM	1.55 µM	3.48 µM
Cc1ccc(S(=O)(=O)N=Nc2c(O)[nH]c3cc(O)c(C(=O)O)cc23)cc1	–	> 100 µM	–	> 100	–	> 100 µM	–	> 100 µM	–	> 100	–	> 100	–	> 100 µM	–	> 100	–	> 100 µM	–	> 100 µM
Cc1nnc(-c2ccc(C)c(-c3ccc(C(=O)Nc4cccc(C#N)c4)cc3)c2)o1	> 25 µM	> 25 µM	> 25	> 25	> 25 µM	> 25 µM	> 25 µM	> 25 µM	> 25 µM	> 25	> 25 µM	> 25	> 25 µM	> 25 µM	> 25 µM	> 25	> 25 µM	> 25 µM	> 25 µM	> 25 µM
CCN1C(=O)/C(=C/c2c(Cl)[nH]c3cc(C)c(OC)cc23)c2ccccc21	0.409 µM	> 100 µM	–	–	0.823 µM	6.58 µM	3.78 µM	16.8 µM	3.91 µM	> 100	3.29 µM	> 100	3.31 µM	70.2 µM	3.03 µM	> 100	5.37 µM	> 100 µM	0.708 µM	> 100 µM
C=C(C)C1CC2(C)C(C)CC(O)CC2C(OC(=O)C=C(C)C)C1O (centres undefined)	–	86 µM	–	> 100	–	> 100 µM	–	> 100 µM	–	> 100	–	> 100	–	57.2 µM	–	> 100	–	> 100 µM	–	> 100 µM
CC1(C)N=C(N)N=C(N)N1c1ccc(CCC(=O)Nc2ccc(S(=O)(=O)F)cc2)c(Cl)c1	0.515 µM	> 100 µM	8.56	> 100	0.642 µM	> 100 µM	0.268 µM	> 100 µM	0.0926 µM	49.7	0.593 µM	> 100	0.0716 µM	> 100 µM	0.342 µM	> 100	0.888 µM	> 100 µM	36.1 µM	> 100 µM
CN(c1ccc(NC(=O)Nc2c(Cl)cccc2Cl)cc1)c1ccnc(Nc2cccc(CS(C)(=O)=O)c2)n1	2.82 µM	> 14.3 µM	4.72	12	3.1 µM	9.23 µM	1.3 µM	7.45 µM	1.56 µM	8.6	3.07 µM	6.72	0.505 µM	11.6 µM	1.54 µM	> 25	2.68 µM	18.5 µM	5 µM	11.9 µM
CCCCCCCCn1ccc2cc(NC(=O)Cn3cc(CN4CCCCCC4)nn3)ccc21	1.83 µM	3.63 µM	1.75	3.33	1.85 µM	3.59 µM	1.66 µM	3.1 µM	–	–	1.97 µM	3.81	1.85 µM	3.45 µM	1.67 µM	3.6	1.76 µM	3.77 µM	1.93 µM	3.6 µM
C[C@]12CCc3sc(Nc4ccc(OC(F)(F)F)cc4)nc3C1=CC[C@@H]1[C@@H]2CC[C@]2(C)C(=O)CC[C@@H]12	1.82 µM	4.14 µM	3.04	10	2.14 µM	4.56 µM	–	–	–	–	4.31 µM	25.1	3.25 µM	11.8 µM	1.87 µM	6.64	3.73 µM	21.7 µM	3 µM	11.6 µM
O=c1[nH]c2ccccc2cc1-c1nc2ccc(Cl)cc2[nH]1	1.4 µM	> 100 µM	2.22	8.01	6.79 µM	> 100 µM	2.66 µM	21.4 µM	3.71 µM	29.1	7.68 µM	64.2	2.61 µM	> 100 µM	3.85 µM	> 100	4.7 µM	> 100 µM	–	–
CNC(=O)OCc1c(COC(=O)NC)c(-c2ccc(-c3ccccc3)cc2)n(C)c1C	–	14.5 µM	–	11.8	–	4.04 µM	–	14.1 µM	–	12.3	–	9.4	–	12.2 µM	–	–	–	10.2 µM	–	4.96 µM
COCCOC(=O)C1=C(O)c2ccccc2S(=O)(=O)N1C	–	–	–	> 100	–	> 100 µM	–	> 100 µM	–	> 100	–	> 100	–	> 100 µM	–	> 100	–	> 100 µM	–	> 100 µM
O=C(NC(=O)c1c(F)cccc1F)Nc1cccc(Oc2ncc(Cl)cn2)c1	–	> 100 µM	–	> 93.3	–	> 100 µM	–	> 100 µM	–	> 100	–	> 100	–	–	–	> 100	–	> 100 µM	–	> 100 µM
NC(CSC(c1ccccc1)(c1ccccc1)c1ccccc1)C(=O)NCC(=O)O (centres undefined)	3.87 µM	> 100 µM	4.33	43.7	2.39 µM	7.13 µM	3.97 µM	> 100 µM	5.25 µM	> 100	18.9 µM	> 100	4.27 µM	78.8 µM	3.19 µM	> 100	–	–	2.71 µM	7.93 µM
COc1cc(Nc2ncccc2C(=O)Nc2nc3ccc(F)cc3s2)cc(OC)c1OC	3.23 µM	> 100 µM	7.4	> 100	1.54 µM	5.1 µM	3.49 µM	> 100 µM	2.73 µM	> 100	5.5 µM	> 100	3.3 µM	> 100 µM	–	–	2.27 µM	> 100 µM	2.34 µM	8.04 µM
Nc1ncc(-c2cnn(C3CCNCC3)c2)cc1-c1nc2cc(Cl)ccc2o1	1.14 µM	2.68 µM	1.76	3.22	–	–	0.851 µM	2.13 µM	1.29 µM	2.77	1.63 µM	3.08	1.68 µM	3.28 µM	0.218 µM	0.444	1.62 µM	3.14 µM	–	–
NC1=NN(c2ccccc2)C(=O)C1C(=O)CCC(=O)Nc1cccc(Cl)c1 (centres undefined)	–	–	–	> 100	–	> 100 µM	–	> 100 µM	–	–	–	–	–	> 100 µM	–	> 100	–	> 100 µM	–	> 100 µM
O=C(Nc1ccc(Cl)cc1)C1C(=O)C(=O)N(c2ccc(Cl)cc2)C1=O (centres undefined)	–	–	–	> 100	–	> 100 µM	–	> 100 µM	–	–	–	–	–	> 100 µM	–	> 100	–	> 100 µM	–	> 100 µM
Cc1cc(Cl)ccc1OCC(=O)Nc1nc2c(Cl)cccc2s1	11.2 µM	24 µM	96.2	> 100	46.9 µM	> 100 µM	–	–	8.89 µM	> 100	26.4 µM	> 100	–	> 100 µM	7.25 µM	> 100	73 µM	> 100 µM	> 100 µM	> 100 µM
